Measured values reported in patent US8575203B2, “Chemical compounds” (Boehringer Ingelheim International GmbH, priority 2010, dated 2013).

Biological target: Recombinant human PDK1 enzyme (aa 52-556) (Homo sapiens (Human), UniProt O15530)
Experiment: PDK1 kinase assay
Format: biochemical
Conditions: in vitro kinase assay, His6-PDK1 (aa 52-556), PDKtide, P33-ATP
Description: The activity of the compounds according to the invention on the kinase PDK1 which inhibits the signal transduction pathway is determined in an in vitro kinase assay with recombinantly prepared protein:
Recombinant human PDK1 enzyme (aa 52-556) linked at its N-terminal end to His6 is isolated from baculovirus-infected insect cells. Purified enzyme may be obtained for example from the University of Dundee, Scotland. The following components are combined in a well of a 96-well round-based dish (Greiner bio-one, No. 650101): • 15 μL of compound to be tested in varying concentrations (e.g. starting at 10 μM, and diluted in steps of 1:5) in APT buffer (50 mM Tris/Cl pH 7.5; 0.05% β-mercaptoethanol; 10 mM Mg-acetate; 0.0166% Tween 20; 3.33% DMSO) • 15 μL His6-PDK1 (aa 52-556) 3.33 ng/well) and PDKtide ([…]), synthesised by Pepceuticals Limited, Nottingham, United Kingdom; 25 μM final concentration); His6-PDK1 and PDKtide are together diluted accordingly in assay buffer (50 mM tris pH 7.5, 0.05% β-mercaptoethanol, 10 mM Mg-acetate); PDKtide is present in this mixture as an 83.3 μM solution. These 30 μl are routinely incubated for 30 min at RT. • 20 μL ATP solution (25 μM ATP with 1.0 μCi/well gamma-P33-ATP). The final concentration of Tween 20 is 0.005%.
The reaction is started by adding the ATP solution and the mixture is incubated for 90 min at RT. At the start of the reaction the dishes are shaken gently. The reaction is stopped by the addition of 50 μL/well of 500 mM phosphoric acid (H3PO4) and incubated for about 20 min at RT. The precipitate is transferred by harvesting onto filter plates (96-well microtitre filter plate: UniFilter GF/C; Perkin Elmer; No. 6005174), then washed 6 times with 50 mM H3PO4 and dried at 60° C. Then the plate is stuck down with sealing tape, 25 μL/well of scintillation solution (Microscint 0; Perkin Elmer; No. 6013611) are added and the amount of P33 precipitated is measured using the Wallac Betacounter. The measured data are evaluated using Graphpad Prism software.

Chain of Recombinant human PDK1 enzyme (aa 52-556) (O15530 52-556): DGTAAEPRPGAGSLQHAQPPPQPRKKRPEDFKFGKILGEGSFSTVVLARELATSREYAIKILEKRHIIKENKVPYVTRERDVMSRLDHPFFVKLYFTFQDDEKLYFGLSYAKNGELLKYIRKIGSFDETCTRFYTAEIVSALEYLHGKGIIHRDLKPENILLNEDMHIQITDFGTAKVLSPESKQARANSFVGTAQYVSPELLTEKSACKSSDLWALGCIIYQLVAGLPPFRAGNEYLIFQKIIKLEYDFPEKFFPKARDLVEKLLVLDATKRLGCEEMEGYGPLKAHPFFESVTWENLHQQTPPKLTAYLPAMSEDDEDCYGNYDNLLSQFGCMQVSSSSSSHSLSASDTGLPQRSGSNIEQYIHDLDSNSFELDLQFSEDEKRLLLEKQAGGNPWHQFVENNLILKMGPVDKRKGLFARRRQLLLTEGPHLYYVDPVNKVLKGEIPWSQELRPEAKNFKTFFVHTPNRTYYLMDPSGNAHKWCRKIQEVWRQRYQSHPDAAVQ

Compound	IC50 [nM]
CN(C)CC(O)COc1ccnc2ccc(C#CCNC(=O)c3cccn(Cc4ccc(F)c(F)c4)c3=O)cc12 (stereo not drawn) [I-105]	47
CN1CCC(Oc2ccnc3ccc(C#CCNC(=O)c4cccn(Cc5ccc(F)c(F)c5)c4=O)cc23)C1 (stereo not drawn) [I-107]	212
O=C(NCC#Cc1ccc2nccc(OCC3CCCCO3)c2c1)c1cccn(Cc2ccc(F)c(F)c2)c1=O (stereo not drawn) [I-109]	166
COC(C)CCOc1ccnc2ccc(C#CCNC(=O)c3cccn(Cc4ccc(F)c(F)c4)c3=O)cc12 (stereo not drawn) [I-110]	137
CN1CCC(Oc2ccnc3ccc(C#CCNC(=O)c4cccn(Cc5ccc(F)c(F)c5)c4=O)cc23)CC1 [I-112]	71
O=C(NCC#Cc1ccc2nccc(OC3CCNCC3)c2c1)c1cccn(Cc2ccc(F)c(F)c2)c1=O [I-114]	23
O=C(NCC#Cc1ccc2nccc(NC3CC3)c2c1)c1cccn(Cc2ccc(F)c(F)c2)c1=O [I-116]	1000
CN(C)CCNc1ccnc2ccc(C#CCNC(=O)c3cccn(Cc4ccc(F)c(F)c4)c3=O)cc12 [I-118]	853
CN(C)CCCNc1ccnc2ccc(C#CCNC(=O)c3cccn(Cc4ccc(F)c(F)c4)c3=O)cc12 [I-120]	656
CC(c1cc(F)c(F)c(F)c1)n1cccc(C(=O)NCC#Cc2ccc3nccc(OC[C@@H]4CCN(C)C4)c3c2)c1=O (stereo partly drawn) [I-125.1]	3
CN(C)CCCOc1ccnc2ccc(C#CCNC(=O)c3cccn(Cc4cc(F)c(F)c(F)c4)c3=O)cc12 [I-125.2]	5
CN(C)CCCCOc1ccnc2ccc(C#CCNC(=O)c3cncn(Cc4ccc(F)c(F)c4)c3=O)cc12 [I-125.3]	5
O=C(NCC#Cc1ccc2nccc(OCC3CCOC3)c2c1)c1cccn(C(CO)c2ccc(F)c(F)c2)c1=O (stereo not drawn) [I-125.4]	12
O=C(NCC#Cc1ccc2nccc(OCC3CCOCC3)c2c1)c1cncn(Cc2ccc(F)c(F)c2)c1=O [I-125.6]	26
CC(N)CCOc1ccnc2ccc(C#CCNC(=O)c3cccn(Cc4ccc(F)c(F)c4)c3=O)cc12 (stereo not drawn) [I-125.7]	32
O=C(NCC#Cc1ccc2nccc(OCC3CCCOC3)c2c1)c1cccn(Cc2ccc(F)c(F)c2)c1=O (stereo not drawn) [I-125.8]	46

Compound	IC50 [nM]
CN1CC[C@H](COc2ccnc3ccc(C#CCNC(=O)c4cccn(Cc5cc(F)c(F)c(F)c5)c4=O)cc23)C1 [I-125.9]	2
CC(c1ccc(F)c(F)c1)n1cccc(C(=O)NCC#Cc2ccc3nccc(OC[C@H]4CCN(C)C4)c3c2)c1=O (stereo partly drawn) [I-125.10]	3
CC(c1cc(F)c(F)c(F)c1)n1cccc(C(=O)NCC#Cc2ccc3nccc(OC[C@H]4CCN(C)C4)c3c2)c1=O (stereo partly drawn) [I-125.11]	4
CN1CC[C@@H](COc2ccnc3ccc(C#CCNC(=O)c4cccn(Cc5cc(F)c(F)c(F)c5)c4=O)cc23)C1 [I-125.12]	6
CCN(CC)CCCOc1ccnc2ccc(C#CCNC(=O)c3cncn(Cc4ccc(F)c(F)c4)c3=O)cc12 [I-125.13]	6
CC(C)(C)COc1ccnc2ccc(C#CCNC(=O)c3cccn(C(CO)c4ccc(F)c(F)c4)c3=O)cc12 (stereo not drawn) [I-125.14]	60
CCOc1ccnc2ccc(C#CCNC(=O)c3cccn(C(CO)c4ccc(F)c(F)c4)c3=O)cc12 (stereo not drawn) [I-125.15]	11
O=C(NCC#Cc1ccc2nccc(OCC3CCOCC3)c2c1)c1cccn(C(CO)c2ccc(F)c(F)c2)c1=O (stereo not drawn) [I-125.16]	11
CN1CCC[C@@H](COc2ccnc3ccc(C#CCNC(=O)c4cccn(Cc5cc(F)c(F)c(F)c5)c4=O)cc23)C1 [I-125.17]	2
CC(c1cc(F)c(F)c(F)c1)n1cccc(C(=O)NCC#Cc2ccc3nccc(OC[C@@H]4CCCN(C)C4)c3c2)c1=O (stereo partly drawn) [I-125.18]	2
O=C(NCC#Cc1ccc2nccc(OC[C@@H]3CCCN(CCN4CCOCC4)C3)c2c1)c1cccn(Cc2cc(F)c(F)c(F)c2)c1=O [I-125.19]	3
C[C@@H](c1cc(F)c(F)c(F)c1)n1cccc(C(=O)NCC#Cc2ccc3nccc(OC[C@@H]4CCCN(CCN5CCOCC5)C4)c3c2)c1=O [I-125.20]	17
CN1CCC[C@@H](COc2ccnc3ccc(C#CCNC(=O)c4cccn(C(CO)c5cc(F)c(F)c(F)c5)c4=O)cc23)C1 (stereo partly drawn) [I-125.21]	2
CC(C)N1CCC[C@@H](COc2ccnc3ccc(C#CCNC(=O)c4cccn(Cc5ccc(F)c(F)c5)c4=O)cc23)C1 [I-125.22]	3
O=C(NCC#Cc1ccc2nccc(OC[C@@H]3CCCNC3)c2c1)c1cccn(Cc2ccc(F)c(F)c2)c1=O [I-125.23]	4

The remaining lines, values ahead:

IC50 [nM]	Compound
33	CN(C)CC(C)(C)COc1ccnc2ccc(C#CCNC(=O)c3cccn(Cc4ccc(F)c(F)c4)c3=O)cc12 [I-103]
71	CN(C)CC(O)COc1ccnc2ccc(C#CCNC(=O)c3cncn(Cc4ccc(F)c(F)c4)c3=O)cc12 (stereo not drawn) [I-104]
119	CN1CCC(Oc2ccnc3ccc(C#CCNC(=O)c4cncn(Cc5ccc(F)c(F)c5)c4=O)cc23)C1 (stereo not drawn) [I-106]
116	O=C(NCC#Cc1ccc2nccc(OCC3CCCCO3)c2c1)c1cncn(Cc2ccc(F)c(F)c2)c1=O (stereo not drawn) [I-108]
29	CN1CCC(Oc2ccnc3ccc(C#CCNC(=O)c4cncn(Cc5ccc(F)c(F)c5)c4=O)cc23)CC1 [I-111]
15	O=C(NCC#Cc1ccc2nccc(OC3CCNCC3)c2c1)c1cncn(Cc2ccc(F)c(F)c2)c1=O [I-113]
780	O=C(NCC#Cc1ccc2nccc(NC3CC3)c2c1)c1cncn(Cc2ccc(F)c(F)c2)c1=O [I-115]
1000	CN(C)CCNc1ccnc2ccc(C#CCNC(=O)c3cncn(Cc4ccc(F)c(F)c4)c3=O)cc12 [I-117]
554	CN(C)CCCNc1ccnc2ccc(C#CCNC(=O)c3cncn(Cc4ccc(F)c(F)c4)c3=O)cc12 [I-119]
156	O=C(NCC#Cc1ccc2nccc(OCC3CCCO3)c2c1)c1cncn(Cc2ccc(F)c(F)c2)c1=O (stereo not drawn) [I-121]
3	O=C(NCC#Cc1ccc2nccc(OCC3CCNC3)c2c1)c1cncn(Cc2ccc(F)c(F)c2)c1=O (stereo not drawn) [I-122]
2	O=C(NCC#Cc1ccc2nccc(OCC3CCCNC3)c2c1)c1cncn(Cc2ccc(F)c(F)c2)c1=O (stereo not drawn) [I-123]
2	CC(c1ccc(F)c(F)c1)n1cccc(C(=O)NCC#Cc2ccc3nccc(OCCCN(C)C)c3c2)c1=O (stereo not drawn) [I-124]
2	CN(C)CCCOc1ccnc2ccc(C#CCNC(=O)c3cccn(C(CO)c4ccc(F)c(F)c4)c3=O)cc12 (stereo not drawn) [I-125]
86	CCNc1c([N+](=O)[O-])cnc2ccc(C#CCNC(=O)c3cncn(Cc4ccc(F)c(F)c4)c3=O)cc12 [I-126]
98	CNc1c([N+](=O)[O-])cnc2ccc(C#CCNC(=O)c3cncn(Cc4ccc(F)c(F)c4)c3=O)cc12 [I-127]

IC50 [nM]	Compound
116	CC(C)Nc1c([N+](=O)[O-])cnc2ccc(C#CCNC(=O)c3cncn(Cc4ccc(F)c(F)c4)c3=O)cc12 [I-128]
12	CNc1ncnc2ccc(C#CCNC(=O)c3cncn(Cc4ccc(F)c(F)c4)c3=O)cc12 [II-1]
171	CN1CC(Nc2ncnc3ccc(C#CCNC(=O)c4cncn(Cc5ccc(F)c(F)c5)c4=O)cc23)C1 [II-2]
134	CN(CCc1ccccc1)c1ncnc2ccc(C#CCNC(=O)c3cncn(Cc4ccc(F)c(F)c4)c3=O)cc12 [II-3]
26	CN(C)c1ncnc2ccc(C#CCNC(=O)c3cncn(Cc4ccc(F)c(F)c4)c3=O)cc12 [II-4]
16	CN(Cc1ccccc1)c1ncnc2ccc(C#CCNC(=O)c3cncn(Cc4ccc(F)c(F)c4)c3=O)cc12 [II-5]
98	O=C(NCC#Cc1ccc2ncnc(NCCc3ccco3)c2c1)c1cncn(Cc2ccc(F)c(F)c2)c1=O [II-6]
105	O=C(NCC#Cc1ccc2ncnc(NCCc3ccccn3)c2c1)c1cncn(Cc2ccc(F)c(F)c2)c1=O [II-7]
91	COc1ccc(CCNc2ncnc3ccc(C#CCNC(=O)c4cncn(Cc5ccc(F)c(F)c5)c4=O)cc23)cc1OC [II-8]
443	O=C(NCC#Cc1ccc2ncnc(N3CCNCC3)c2c1)c1cncn(Cc2ccc(F)c(F)c2)c1=O [II-9]
229	CN(C)CCNc1ncnc2ccc(C#CCNC(=O)c3cncn(Cc4ccc(F)c(F)c4)c3=O)cc12 [II-10]
135	O=C(NCC#Cc1ccc2ncnc(NCCCn3ccnc3)c2c1)c1cncn(Cc2ccc(F)c(F)c2)c1=O [II-11]
161	O=C(NCC#Cc1ccc2ncnc(NCCc3cccs3)c2c1)c1cncn(Cc2ccc(F)c(F)c2)c1=O [II-12]
184	O=C(NCC#Cc1ccc2ncnc(NCC(O)c3ccccc3)c2c1)c1cncn(Cc2ccc(F)c(F)c2)c1=O (stereo not drawn) [II-13]
158	COCCCNc1ncnc2ccc(C#CCNC(=O)c3cncn(Cc4ccc(F)c(F)c4)c3=O)cc12 [II-14]
445	CC(CNc1ncnc2ccc(C#CCNC(=O)c3cncn(Cc4ccc(F)c(F)c4)c3=O)cc12)c1ccccc1 (stereo not drawn) [II-15]
